Target: T1, PTP-1B (Homo sapiens, UniProt P18031)
T1 construct: PTP-1B (purified, 1 mg/mL) as a 1:250 dilution
T1 sequence (P18031 1-321 limits assumed): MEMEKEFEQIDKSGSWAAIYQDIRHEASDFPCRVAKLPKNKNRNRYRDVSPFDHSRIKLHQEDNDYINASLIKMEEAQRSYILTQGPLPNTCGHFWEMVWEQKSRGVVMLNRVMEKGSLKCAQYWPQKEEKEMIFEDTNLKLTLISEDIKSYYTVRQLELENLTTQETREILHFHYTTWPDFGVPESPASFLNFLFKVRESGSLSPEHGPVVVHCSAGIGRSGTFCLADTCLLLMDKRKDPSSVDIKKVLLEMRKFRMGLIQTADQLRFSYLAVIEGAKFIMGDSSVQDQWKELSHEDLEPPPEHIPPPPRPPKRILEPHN
Assay: pNPP tyrosine phosphatase inhibition assay, PTP-1B
Format: biochemical
Conditions: pNPP assay, PTP-1B; read-out: Activity Class (IC50 ranges)
How it was run: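 Test compounds were screened at two final levels, 31.3 and 10 µM, against 4 µg/mL purified PTP-1B. The substrate was 10 mM p-nitrophenyl phosphate, with incubation for 10 min at 30°C before a K2CO3 quench. Activity was taken from A405.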

IC50 [nM] | Molecule
250 to 499 | O=P(O)(O)C(F)(F)c1ccc(CN(Cc2ccc(Cl)c(Cl)c2)S(=O)(=O)c2ccccc2OC(F)(F)F)cc1Br [Compound 98, [(2-Bromo-4-{[(3,4-dichloro-benzyl)-(2-trifluoromethoxy-benzenesulfonyl)-amino]-methyl}-phenyl)-difluoro-methyl]-phosphonic acid]
> 25000 | 3-{2-Bromo-4-[N-(4-cyanobenzyl)-N-(2-methoxy-benzenesulfonyl)aminomethyl]-phenoxy}-acetic acid [Compound 121]
< 99 | O=P(O)(O)C(F)(F)c1ccc(CN(Cc2ccc(C(F)(F)P(=O)(O)O)c(Br)c2)S(=O)(=O)c2ccc3ccccc3c2)cc1 [Compound 42, [(2-Bromo-4-{[[4-(difluoro-phosphono-methyl)-benzyl]-(naphthalene-2-sulfonyl)-amino]-methyl}-phenyl)-difluoro-methyl]-phosphonic acid]
> 25000 | COc1ccccc1S(=O)(=O)N(Cc1ccc(C#N)cc1)Cc1ccc(C=CC(=O)O)cc1 [Compound 124, 3-{4-[N-(4-cyanobenzyl)-N-(2-methoxy-benzenesulfonyl)aminomethyl]-phenyl}-acrylic acid]
> 25000 | COc1ccccc1S(=O)(=O)N(Cc1ccc(-c2nnn[nH]2)cc1)Cc1ccc(S(C)(=O)=O)cc1 [Compound 115, N-(4-Methanesulfonyl-benzyl)-2-methoxy-N-[4-(1H-tetrazol-5-yl)-benzyl]-benzenesulfonamide]
250 to 499 | COc1cccc(S(=O)(=O)N(Cc2ccc(C(F)(F)P(=O)(O)O)cc2)Cc2ccc(C(F)(F)P(=O)(O)O)cc2)c1 [Compound 86, [(4-{[[4-(Difluoro-phosphono-methyl)-benzyl]-(3-methoxy-benzenesulfonyl)-amino]-methyl}-phenyl)-difluoro-methyl]-phosphonic acid]
250 to 499 | O=P(O)(O)C(F)(F)c1ccc(CN(Cc2ccc(C(F)(F)P(=O)(O)O)cc2)S(=O)(=O)C=Cc2ccccc2)cc1 [Compound 75, [(4-{[[4-(Difluoro-phosphono-methyl)-benzyl]-(2-phenyl-ethenesulfonyl)-amino]-methyl}-phenyl)-difluoro-methyl]-phosphonic acid]
100 to 249 | COC(=O)c1ccc(CN(Cc2ccc(C(F)(F)P(=O)(O)O)c(Br)c2)S(=O)(=O)c2ccccc2Cl)cc1 [Compound 104, 4-{[[3-Bromo-4-(difluoro-phosphono-methyl)-benzyl]-(2-chloro-benzenesulfonyl)-amino]-methyl}-benzoic acid methyl ester]
250 to 499 | COC(=O)c1ccc(CN(Cc2ccc(C(F)(F)P(=O)(O)O)c(Cl)c2)S(=O)(=O)c2ccccc2OC)cc1 [Compound 231, 4-{[[3-Chloro-4-(difluoro-phosphono-methyl)-benzyl]-(2-methoxy-benzenesulfonyl)-amino]-methyl}-benzoic acid methyl ester]
250 to 499 | O=P(O)(O)C(F)(F)c1ccc(CN(Cc2ccc(C(F)(F)P(=O)(O)O)cc2)S(=O)(=O)c2ccc3ccccc3c2)cc1 [Compound 71, [(4-{[[4-(Difluoro-phosphono-methyl)-benzyl]-(naphthalene-2-sulfonyl)-amino]-methyl}-phenyl)-difluoro-methyl]-phosphonic acid]
100 to 249 | COc1ccccc1S(=O)(=O)N(Cc1ccc(C(F)(F)P(=O)(O)O)c(Cl)c1)Cc1ccccc1-c1ccccc1 [Compound 168, [(4-{[Biphenyl-2-ylmethyl-(2-methoxy-benzenesulfonyl)-amino]-methyl}-2-chloro-phenyl)-difluoro-methyl]-phosphonic acid]
< 99 | COc1ccccc1S(=O)(=O)N(Cc1ccc(-c2ccc(Cl)c(C(=O)O)c2)cc1)Cc1ccc(C(F)(F)P(=O)(O)O)c(Cl)c1 [Compound 176, 4-Chloro-4′-{[[3-chloro-4-(difluoro-phosphono-methyl)-benzyl]-(2-methoxy-benzenesulfonyl)-amino]-methyl}-biphenyl-3-carboxylic acid]
250 to 499 | CCOC(=O)c1cc(-c2ccc(CN(Cc3ccc(C(F)(F)P(=O)(O)O)c(Cl)c3)S(=O)(=O)c3ccccc3OC)cc2)ccc1Cl [Compound 175, 4-Chloro-4′-{[[3-chloro-4-(difluoro-phosphono-methyl)-benzyl]-(2-methoxy-benzenesulfonyl)-amino]-methyl}-biphenyl-3-carboxylic acid ethyl ester]
> 25000 | O=P(O)(O)C(F)(F)c1ccc(CN(Cc2ccc(C(F)(F)P(=O)(O)O)cc2)C2CCCC2)cc1 [Compound 63, {[4-({Cyclopentyl-[4-(difluoro-phosphono-methyl)-benzyl]-amino}-methyl)-phenyl]-difluoro-methyl}-phosphonic acid]
250 to 499 | O=P(O)(O)C(F)(F)c1ccc(CN(Cc2ccc(C(F)(F)P(=O)(O)O)cc2)S(=O)(=O)c2ccc(-c3ccccc3)cc2)cc1 [Compound 66, {[4-({(Biphenyl-4-sulfonyl)-[4-(difluoro-phosphono-methyl)-benzyl]-amino}-methyl)-phenyl]-difluoro-methyl}-phosphonic acid]
> 25000 | COc1ccccc1S(=O)(=O)N(Cc1ccc(C#N)cc1)Cc1ccc(NS(=O)(=O)C(F)(F)F)cc1 [Compound 117, N-(4-(N-trifluoro-methanesulfonyl-amino]benzyl)-N-(4-cyanobenzyl)-(2-methoxy)benzenesulfonamide]
100 to 249 | COc1ccccc1S(=O)(=O)N(Cc1ccc(C(F)(F)P(=O)(O)O)c(Br)c1)c1ccc(S(C)(=O)=O)cc1 [Compound 114, [(2-Bromo-4-{[(4-methanesulfonyl-phenyl)-(2-methoxy-benzenesulfonyl)-amino]-methyl}-phenyl)-difluoro-methyl]-phosphonic acid]
> 25000 | COc1ccccc1S(=O)(=O)N(Cc1ccc(C(=O)C(=O)O)cc1)Cc1ccc(S(C)(=O)=O)cc1 [Compound 125, (4-{[(4-Methanesulfonyl-benzyl)-(2-methoxy-benzenesulfonyl)-amino]-methyl}-phenyl)-oxo-acetic acid]
> 25000 | (4-{[(4-Cyano-benzyl)-(2-methoxy-benzenesulfonyl)-amino]-methyl}-phenyl)-difluoro-acetic acid [Compound 130]
2500 to 25000 | O=P(O)(O)C(F)(F)c1ccc(CN(Cc2ccc(C(F)(F)P(=O)(O)O)cc2)c2ccc(-c3ccccc3)cc2)cc1 [Compound 62, {[4-({Biphenyl-4-yl-[4-(difluoro-phosphono-methyl)-benzyl]-amino}-methyl)-phenyl]-difluoro-methyl}-phosphonic acid]
250 to 499 | COc1ccccc1S(=O)(=O)N(Cc1ccc(C(F)(F)P(=O)(O)O)c(Cl)c1)Cc1ccccc1OCCCC(C)C [Compound 215, {[2-Chloro-4-({(2-methoxy-benzenesulfonyl)-[2-(4-methyl-pentyloxy)-benzyl]-amino}-methyl)-phenyl]-difluoro-methyl}-phosphonic acid]
100 to 249 | COc1ccccc1S(=O)(=O)N(Cc1ccc(Cl)c(Cl)c1)Cc1ccc(C(F)(F)P(=O)(O)O)c(Br)c1 [Compound 101, [(2-Bromo-4-{[(3,4-dichloro-benzyl)-(2-methoxy-benzenesulfonyl)-amino]-methyl}-phenyl)-difluoro-methyl]-phosphonic acid]
> 25000 | COc1ccccc1S(=O)(=O)N(Cc1ccc(C(O)C(=O)O)cc1)Cc1ccc(S(C)(=O)=O)cc1 (stereo not drawn) [Compound 127, Hydroxy-(4-{[(4-methanesulfonyl-benzyl)-(2-methoxy-benzenesulfonyl)-amino]-methyl}-phenyl)-acetic acid]
> 25000 | COc1ccc(OC)c(S(=O)(=O)N(Cc2ccc(C(O)CO)cc2)Cc2ccc(S(C)(=O)=O)cc2)c1 (stereo not drawn) [Compound 119, N-[4-(1,2-Dihydroxy-ethyl)-benzyl]-N-(4-methanesulfonyl-benzyl)-2,5-dimethoxy-benzenesulfonamide]
100 to 249 | COc1ccccc1S(=O)(=O)N(Cc1ccc(C(F)(F)P(=O)(O)O)c(Cl)c1)Cc1ccccc1-c1ccncc1 [Compound 180, [(2-Chloro-4-{[(2-methoxy-benzenesulfonyl)-(2-pyridin-4-yl-benzyl)-amino]-methyl}-phenyl)-difluoro-methyl]-phosphonic acid]
250 to 499 | COC(=O)c1cccc(-c2ccc(CN(Cc3ccc(C(F)(F)P(=O)(O)O)c(Cl)c3)S(=O)(=O)c3ccccc3OC)cc2)c1 [Compound 145, 4′-{[[3-Chloro-4-(difluoro-phosphono-methyl)-benzyl]-(2-methoxy-benzenesulfonyl)-amino]-methyl}-biphenyl-3-carboxylic acid methyl ester]
< 99 | COc1ccccc1S(=O)(=O)N(Cc1ccc(-c2cccc(C(=O)O)c2)cc1)Cc1ccc(C(F)(F)P(=O)(O)O)c(Cl)c1 [Compound 149, 4′-{[[3-Chloro-4-(difluoro-phosphono-methyl)-benzyl]-(2-methoxy-benzenesulfonyl)-amino]-methyl}-biphenyl-3-carboxylic acid]
100 to 249 | COc1ccccc1S(=O)(=O)N(Cc1ccc(C(=O)O)cc1)Cc1ccc(C(F)(F)P(=O)(O)O)c(Cl)c1 [Compound 233, 4-{[[3-Chloro-4-(difluoro-phosphono-methyl)-benzyl]-(2-methoxy-benzenesulfonyl)-amino]-methyl}-benzoic acid]

Molecule | IC50 [nM]
4-{2-[({[4-(difluorophosphonomethyl)-3-chlorophenyl]methyl}[(2-methoxyphenyl)sulfonyl]amino)methyl]phenyl}benzamide [Compound 199] | < 99
{[4-(difluorophosphonomethyl)-3-chlorophenyl]methyl}[(2-methoxyphenyl)sulfonyl](2-piperidylmethyl)amine [Compound 213] | 2500 to 25000

From patent US20060135773A1, “Trisubstituted nitrogen modulators of tyrosine phosphatases” (priority 2004, published 2006)
